Assay results from patent publication US9420769B2, “Chimeric non-human animal carrying human hepatocyte” (PHOENIXBIO CO., LTD., priority 2011, dated 2016).
Counter-ions that a name gives are not always drawn.

Tests used:
[1] = MDZ metabolic activity in hepatic microsomes; format: in vitro ADME, mouse; settings: cyp3a (KO/KO)/uPA(+/+)/SCID(+/+) chimeric mice [N2F1] compared with PXB mice; MDZ 50 umol/L, 0.1 mg/mL microsomes, 37° C., 5 minutes; 1'- and 4-hydroxylated metabolites
Experimental: (§1) On weeks 10 to 11 after transplantation (14-week-old), each of chimeric mice and non-transplanted cyp3a (KO/KO)/uPA(+/+)/SCID(+/+) mice [N2F1] was dissected and thus the liver, the small intestine, and blood were collected. The collected liver and small intestine were cut into appropriate sizes. The resulting pieces were immersed in 1 mL of RNA Later (Life Technologies Corporation, Cat No. AM7020), stored at 4° C. overnight, and then stored at −80° C. In addition, portions of the liver and the small intestine were embedded in an OCT compound (Tissue-Tek) for the preparation of frozen sections, and then cryopreserved with liquid nitrogen. Microsomes were prepared from the remaining small intestine and liver portions by procedures such as centrifugation. The thus prepared microsomes were stored at −80° C.
(§2) MDZ metabolic activity was determined using microsomes from the liver and the small intestine from each mouse prepared in Example 2 above. In an experiment using hepatic microsomes, MDZ with a final concentration of 50 umol/L was incubated in hepatic microsomes with a final concentration of 0.1 mg/mL at 37° C. for 5 minutes. […] 1′- and 4-hydroxylated metabolites of MDZ were measured using LC-MS/MS.

[2] = MDZ metabolic activity in small intestinal microsomes; format: in vitro ADME, mouse; settings: MDZ 50 umol/L, 0.5 mg/mL microsomes, 37° C., 10 minutes
Experimental: as §1, §2

[3] = Metabolic studies for nefazodone hydrochloride (metabolite profiles in blood plasma and urine after peroral administration); format: in vivo, mouse
Experimental: Eight (8) mg of free/mL nefazodone hydrochloride suspended in 0.5% methylcellulose (resulting in a dose of […].) was forcibly administered perorally twice in a volume of 5 mL/kg b.w. at each instance to four (two male and two female mice) cyp3a (KO/KO)/uPA(+/+)/SCID(+/+) mice [N4F1] (week 8 after transplantation (11-week-old)) obtained in Example 8 above by transplantation of human hepatocytes.
Immediately after the first peroral administration of nefazodone hydrochloride, the animals were housed in metabolic cages. Urine was sampled at a time 0 to 8 hours after administration and at a time 8 to 24 hours after administration, at room temperature. After the sampling of urine, the 2nd peroral administration of nefazodone hydrochloride was performed. One (1) hour after administration, blood, small intestine, and liver samples were collected. Immediately after blood collection, centrifugation (1000×g, 4° C. for 10 minutes) was performed to prepare blood plasma. Immediately after collection, urine and blood plasma were stored at −80° C. The PXB mice and the SCID(+/+) mice were similarly treated, and thus blood plasma and urine samples were obtained.
Acetonitrile was added to the thus obtained blood plasma and urine, in an amount equivalent thereto, for deproteinization. Centrifugal filtration (Ultrafree-MC centrifugal filtration tube; 0.45 μm, 9500×g, 2 min, 4° C.) was then performed. The thus obtained filtrates were designated as analytical samples.

[4] = PXB mice, 10 mg free/kg peroral, 1 hour after 2nd administration
[5] = SCID(+/+) mice, 10 mg free/kg peroral, 1 hour after 2nd administration
[6] = cyp3a (KO/KO)/uPA(+/+)/SCID(+/+) chimeric mice [N4F1], 10 mg free/kg peroral, 1 hour after 2nd administration

Row | Compound | MDZ metabolic activity in hepatic microsomes [1] | MDZ metabolic activity in small intestinal microsomes ([2]; cyp3a (KO/KO)/uPA(+/+)/SCID(+/+) chimeric mice [N2F1] compared with PXB mice) | MDZ metabolic activity in small intestinal microsomes ([2]; cyp3a (KO/KO)/uPA(+/+)/SCID(+/+) chimeric mice [N2F1] compared with non-transplanted cyp3a (KO/KO)/uPA(+/+)/SCID(+/+) mice [N2F1]) | metabolites detected in blood plasma [3, 4] | unchanged nefazodone in blood plasma [3, 4] | metabolites detected in urine ([3]; PXB mice, 10 mg free/kg peroral, urine 0 to 24 hours after administration) | metabolites detected in blood plasma [3, 5] | unchanged nefazodone in blood plasma [3, 5] | metabolites detected in urine ([3]; SCID(+/+) mice, 10 mg free/kg peroral, urine 0 to 24 hours after administration) | human-type metabolites detected in blood plasma, in addition to Triazoledione metabolite [3, 6] | unchanged nefazodone in blood plasma [3, 6] | human-type metabolites detected in urine ([3]; cyp3a (KO/KO)/uPA(+/+)/SCID(+/+) chimeric mice [N4F1], 10 mg free/kg peroral, urine 0 to 24 hours after administration) | metabolic profiles ([3]; cyp3a (KO/KO)/uPA(+/+)/SCID(+/+) chimeric mice, unlike PXB mice and SCID(+/+) mice)
1 | Cc1ncc2n1-c1ccc(Cl)cc1C(c1ccccc1F)=NC2 [MDZ, Midazolam] | almost the same | lower than that of the PXB mice | almost the same as that of the non-transplanted |  |  |  |  |  |  |  |  |  | 
2 | CCc1nn(CCCN2CCN(c3cccc(Cl)c3)CC2)c(=O)n1CCOc1ccccc1 [nefazodone hydrochloride] |  |  |  | Triazoledione metabolite alone was detected | not detected | metabolite C alone was detected | Triazoledione metabolite alone was detected | not detected | metabolite C alone was detected | OH-NEF and p-OH-NEF | detected | mCPP and metabolite D | reflected the human drug-metabolizing system
